Data as given in paper PMC4892435, “Structure of astrotactin-2: a conserved vertebrate-specific and perforin-like membrane protein involved in neuronal development” (Open Biology, 2016).

Molecular target: T1, ASTN-2_701-1288 (Homo sapiens, UniProt O75129)
T1 construct: gene ASTN2; endodomain, residues 701-1288 in methods (crystal construct EGF-3 to C-terminus is printed 649-1288; borders may mix numberings); secreted from HEK293T, hexahistidine
T1 sequence (O75129 701-1288 isoform O75129-2): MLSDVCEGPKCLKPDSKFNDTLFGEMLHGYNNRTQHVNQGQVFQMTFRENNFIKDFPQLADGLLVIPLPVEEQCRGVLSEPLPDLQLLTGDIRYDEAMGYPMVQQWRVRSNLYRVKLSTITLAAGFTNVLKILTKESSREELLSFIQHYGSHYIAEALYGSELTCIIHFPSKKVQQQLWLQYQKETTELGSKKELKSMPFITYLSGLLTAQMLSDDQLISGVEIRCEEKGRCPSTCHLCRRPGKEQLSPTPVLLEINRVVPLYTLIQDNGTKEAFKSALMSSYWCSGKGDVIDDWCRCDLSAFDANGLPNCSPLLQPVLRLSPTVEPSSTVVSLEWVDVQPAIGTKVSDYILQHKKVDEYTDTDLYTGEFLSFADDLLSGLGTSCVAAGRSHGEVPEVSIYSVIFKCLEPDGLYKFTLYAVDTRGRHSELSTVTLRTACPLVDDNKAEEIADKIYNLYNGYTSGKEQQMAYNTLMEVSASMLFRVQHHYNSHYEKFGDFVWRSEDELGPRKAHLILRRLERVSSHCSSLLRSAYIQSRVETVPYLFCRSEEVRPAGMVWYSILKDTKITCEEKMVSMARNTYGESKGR
Assay: SPR, Biacore T200, immobilised biotinylated ligand
Assay type: binding
Conditions: pH 7.5, 20 °C, 150 mM NaCl; labelled compound (biotin, immobilised); one Kd printed jointly for PIP3 and PIP2; construct of this run not stated

Kd [µM] | Substance
30 | PtdIns(3,4,5)P3 (C-39B6a)
30 | PtdIns(4,5)P2 (C-45B6a)
